Laboratory results taken from PubChem BioAssay AID302 (DTP/NCI, 2004).
Where “and” joins values, the source holds several entries; their conditions need not be identical. Equal values may be shown once. Toxic doses and inconclusive results are not listed. Rule for the calls: active = survival T/C of 150% or more; inactive = T/C below 125% in these data.

System: BALB/c mice, Madison 109 lung carcinoma i.m., survival
Assay: NCI In Vivo Anticancer Drug Screen. Data for tumor model Madison 109 Lung Carcinoma (intramuscular) in BALB/CM mice
Details: endpoint: median survival time, higher = longer survival
Protocol: The antitumor activity of compounds was measured in mice bearing transplantable tumors. Survival or tumor size were measured and the results are expressed as the measurement made in the treated group (T) divided by the measurement made in the vehicle treated control group (C). The tumor model used in this assay is Madison 109 Lung Carcinoma (intramuscular) in BALB/CM mice

[1] = dose: 8.0 mg/kg/injection, schedule: Q01DX009 (ip), vehicle: saline
[2] = dose: 16.0 mg/kg/injection, schedule: Q01DX009 (ip), vehicle: saline
[3] = dose: 5.0 mg/kg/injection, schedule: Q01DX009 (ip), vehicle: saline with Tween-80
[4] = dose: 10.0 mg/kg/injection, schedule: Q01DX009 (ip), vehicle: saline with Tween-80
[5] = dose: 20.0 mg/kg/injection, schedule: Q01DX009 (ip), vehicle: saline with Tween-80
[6] = dose: 40.0 mg/kg/injection, schedule: Q01DX009 (ip), vehicle: saline with Tween-80
[7] = dose: 80.0 mg/kg/injection, schedule: Q01DX009 (ip), vehicle: saline with Tween-80
[8] = dose: 0.5 mg/kg/injection, schedule: Q01DX009 (ip), vehicle: saline
[9] = dose: 1.0 mg/kg/injection, schedule: Q01DX009 (ip), vehicle: saline
[10] = dose: 8.0 mg/kg/injection, schedule: Q01DX009 (ip), vehicle: saline with Tween-80
[11] = dose: 3.12 mg/kg/injection, schedule: Q01DX009 (ip), vehicle: saline with Tween-80
[12] = dose: 6.25 mg/kg/injection, schedule: Q01DX009 (ip), vehicle: saline with Tween-80
[13] = dose: 12.5 mg/kg/injection, schedule: Q01DX009 (ip), vehicle: saline with Tween-80
[14] = dose: 0.12 mg/kg/injection, schedule: Q01DX009 (ip), vehicle: water
[15] = dose: 0.25 mg/kg/injection, schedule: Q01DX009 (ip), vehicle: water
[16] = dose: 0.5 mg/kg/injection, schedule: Q01DX009 (ip), vehicle: water
[17] = dose: 1.0 mg/kg/injection, schedule: Q01DX009 (ip), vehicle: water
[18] = dose: 32.0 mg/kg/injection, schedule: Q01DX009 (ip), vehicle: saline with Tween-80
[19] = dose: 64.0 mg/kg/injection, schedule: Q01DX009 (ip), vehicle: saline with Tween-80
[20] = dose: 25.0 mg/kg/injection, schedule: Q01DX009 (ip), vehicle: saline with Tween-80
[21] = dose: 50.0 mg/kg/injection, schedule: Q01DX009 (ip), vehicle: saline with Tween-80
[22] = dose: 100.0 mg/kg/injection, schedule: Q01DX009 (ip), vehicle: saline with Tween-80
[23] = dose: 200.0 mg/kg/injection, schedule: Q01DX009 (ip), vehicle: saline with Tween-80
[24] = dose: 400.0 mg/kg/injection, schedule: Q01DX009 (ip), vehicle: saline with Tween-80
[25] = dose: 25.0 mg/kg/injection, schedule: Q01DX009 (ip), vehicle: saline
[26] = dose: 100.0 mg/kg/injection, schedule: Q01DX009 (ip), vehicle: saline
[27] = dose: 0.25 mg/kg/injection, schedule: Q01DX009 (ip), vehicle: saline
[28] = dose: 50.0 mg/kg/injection, schedule: Q01DX009 (ip), vehicle: saline

Measured: T/C

COC1=C(N)C(=O)c2nc(-c3nc(C(=O)O)c(C)c(-c4ccc(OC)c(OC)c4O)c3N)ccc2C1=O
inactive: dose: 0.01 mg/kg/injection, schedule: Q01DX009 (ip), vehicle: saline with Tween-80 95 % of control | dose: 0.02 mg/kg/injection, schedule: Q01DX009 (ip), vehicle: saline with Tween-80 95 % of control | dose: 0.04 mg/kg/injection, schedule: Q01DX009 (ip), vehicle: saline with Tween-80 92 % of control | dose: 0.16 mg/kg/injection, schedule: Q01DX009 (ip), vehicle: saline with Tween-80 93 % of control

NNC(=O)c1ccncc1
inactive: [1] 101 % of control | [2] 111 % of control | dose: 64.0 mg/kg/injection, schedule: Q01DX009 (ip), vehicle: saline 107 % of control | dose: 128.0 mg/kg/injection, schedule: Q01DX009 (ip), vehicle: saline 108 % of control

CCN(CC)CCOc1ccc2c(c1)C(=O)c1cc(OCCN(CC)CC)ccc1-2
inactive: [2] 101 % of control | dose: 32.0 mg/kg/injection, schedule: Q01DX009 (ip), vehicle: saline 108 % of control | dose: 62.0 mg/kg/injection, schedule: Q01DX009 (ip), vehicle: saline 103 % of control

O=[N+]([O-])c1cccc([N+](=O)[O-])c1Cl
inactive: [3] 101 % of control and 120 % of control | [4] 87 % of control and 99 % of control | [5] 120 % of control [middle of 4 runs] | [6] 114 % of control and 96 % of control and 120 % of control | [7] 90 % of control and 93 % of control and 121 % of control | dose: 160.0 mg/kg/injection, schedule: Q01DX009 (ip), vehicle: saline with Tween-80 104 % of control and 99 % of control and 119 % of control | dose: 320.0 mg/kg/injection, schedule: Q01DX009 (ip), vehicle: saline with Tween-80 87 % of control

O=C1c2ccccc2C(=O)c2c(NCCNCCO)ccc(NCCNCCO)c21
inactive: [8] 116 % of control | [9] 119 % of control | dose: 2.0 mg/kg/injection, schedule: Q01DX009 (ip), vehicle: saline 102 % of control and 117 % of control | dose: 4.0 mg/kg/injection, schedule: Q01DX009 (ip), vehicle: saline with Tween-80 107 % of control and 115 % of control | dose: 4.0 mg/kg/injection, schedule: Q01DX009 (ip), vehicle: saline 117 % of control and 121 % of control | [10] 100 % of control and 118 % of control | [1] 113 % of control and 119 % of control | [2] 111 % of control

COc1cccc2c1C(=O)c1c(O)c3c(c(O)c1C2=O)C[C@@](O)(/C(C)=N/NC(=O)c1ccccc1)C[C@@H]3OC1CC(N)C(O)C(C)O1 (some centres undefined)
inactive: dose: 0.25 mg/kg/injection, schedule: Q01DX009 (ip), vehicle: saline with Tween-80 104 % of control | dose: 0.5 mg/kg/injection, schedule: Q01DX009 (ip), vehicle: saline with Tween-80 111 % of control | dose: 1.0 mg/kg/injection, schedule: Q01DX009 (ip), vehicle: saline with Tween-80 124 % of control | dose: 2.0 mg/kg/injection, schedule: Q01DX009 (ip), vehicle: saline with Tween-80 86 % of control and 118 % of control

O=C1C2(Cl)C3(Cl)C4(Cl)C(Cl)(Cl)C5(Cl)[C@]3(Cl)C1(Cl)[C@]5(Cl)C24Cl (some centres undefined)
inactive: [11] 112 % of control | [12] 118 % of control | [13] 121 % of control

COc1cccc2c1C(=O)c1c(O)c3c(c(O)c1C2=O)C[C@@](O)(C(C)=O)C[C@@H]3OC1CC(N)C(O)C(C)O1 (some centres undefined)
inactive: [14] 110 % of control | [15] 102 % of control | [16] 118 % of control | [17] 118 % of control

CCN(CC)CCCC(C)Nc1c2ccc(Cl)cc2nc2ccc(OC)cc12 (centres undefined)
inactive: [10] 106 % of control | dose: 16.0 mg/kg/injection, schedule: Q01DX009 (ip), vehicle: saline with Tween-80 114 % of control | [18] 104 % of control | [19] 107 % of control

Nc1ccc(S(=O)(=O)c2ccc(N)cc2)cc1
inactive: [13] 102 % of control | [20] 103 % of control and 115 % of control | [21] 113 % of control and 117 % of control | [22] 112 % of control | [23] 96 % of control and 102 % of control | [24] 108 % of control

ClC(Cl)=C(Cl)Cl
inactive: [21] 119 % of control | [22] 113 % of control | [23] 107 % of control

CNNCc1ccc(C(=O)NC(C)C)cc1
inactive: [25] 116 % of control | [26] 114 % of control

C[C@]12C=CC(=O)C=C1CC[C@@H]1[C@@H]2C(=O)C[C@@]2(C)[C@H]1CC[C@]2(O)C(=O)CO
inactive: [3] 95 % of control | [4] 98 % of control | [5] 97 % of control | [6] 92 % of control | [7] 92 % of control

COc1cc2c(c(OC)c1OC)-c1ccc(OC)c(=O)cc1[C@@H](NC(C)=O)CC2
inactive: dose: 0.13 mg/kg/injection, schedule: Q01DX009 (ip), vehicle: saline 104 % of control | [27] 104 % of control | [8] 108 % of control | [9] 104 % of control

CN(C)c1nc(N(C)C)nc(N(C)C)n1
inactive: [13] 104 % of control | [20] 90 % of control and 103 % of control | [21] 97 % of control and 102 % of control | [22] 99 % of control

CCOC(OCC)C(=O)OCC(=O)[C@]1(O)Cc2c(O)c3c(c(O)c2[C@@H](OC2CC(N)C(O)C(C)O2)C1)C(=O)c1c(OC)cccc1C3=O (some centres undefined)
inactive: [14] 115 % of control | [15] 124 % of control | [16] 118 % of control

CN(C)C=O
inactive: dose: 12.5 mg/kg/injection, schedule: Q01DX009 (ip), vehicle: saline 102 % of control | [25] 101 % of control and 105 % of control | [28] 101 % of control and 115 % of control | [26] 92 % of control and 101 % of control and 120 % of control | dose: 200.0 mg/kg/injection, schedule: Q01DX009 (ip), vehicle: saline 96 % of control and 106 % of control | dose: 800.0 mg/kg/injection, schedule: Q01DX009 (ip), vehicle: saline 116 % of control and 120 % of control | dose: 1600.0 mg/kg/injection, schedule: Q01DX009 (ip), vehicle: saline 107 % of control

COc1cccc2c1C(=O)c1c(O)c3c(c(O)c1C2=O)C[C@@](O)(C(=O)CO)C[C@@H]3OC1CC(N)C(O)C(C)O1 (some centres undefined)
inactive: dose: 0.12 mg/kg/injection, schedule: Q01DX009 (ip), vehicle: saline 110 % of control | [14] 122 % of control | [27] 114 % of control | [8] 112 % of control and 116 % of control | [16] 119 % of control | [9] 94 % of control and 111 % of control | [17] 115 % of control | dose: 10.0 micrograms/mouse/injection, schedule: Q01DX005 (ip), vehicle: saline 96 % of control | dose: 20.0 micrograms/kg/injection, schedule: Q01DX005 (ip), vehicle: saline 123 % of control | dose: 20.0 micrograms/mouse/injection, schedule: Q01DX005 (ip), vehicle: saline 102 % of control | dose: 40.0 micrograms/kg/injection, schedule: Q01DX005 (ip), vehicle: saline 115 % of control | dose: 40.0 micrograms/mouse/injection, schedule: Q01DX005 (ip), vehicle: saline 105 % of control

CN(CO)c1nc(N(C)CO)nc(N(C)CO)n1
inactive: dose: 1.56 mg/kg/injection, schedule: Q01DX009 (ip), vehicle: saline with Tween-80 94 % of control and 101 % of control | [11] 100 % of control and 112 % of control | [12] 100 % of control and 120 % of control | [13] 107 % of control and 114 % of control | [20] 104 % of control and 108 % of control | [21] 120 % of control

CNc1nc(N(C)C)nc(N(C)C)n1
inactive: [25] 100 % of control | [28] 100 % of control

CCOC(=O)C(C)(C)Oc1ccc(Cl)cc1
inactive: [21] 112 % of control | [22] 109 % of control | [23] 116 % of control | [24] 109 % of control

O=c1cc[nH]c(=O)[nH]1
inactive: [18] 95 % of control and 110 % of control | [19] 96 % of control and 110 % of control | dose: 128.0 mg/kg/injection, schedule: Q01DX009 (ip), vehicle: saline with Tween-80 102 % of control and 105 % of control | dose: 256.0 mg/kg/injection, schedule: Q01DX009 (ip), vehicle: saline with Tween-80 100 % of control and 110 % of control | dose: 512.0 mg/kg/injection, schedule: Q01DX009 (ip), vehicle: saline with Tween-80 94 % of control and 107 % of control
